A melting point compilation (Tetko et al.; mined from patent text by program, amines drawn as free bases though some values may be those of a salt)

Row | melting point [°C] | SMILES
1 | 115 to 121 | CC(=O)OC[C@H]1OC(OC(C)=O)[C@H](OC(C)=O)[C@@H](F)[C@@H]1OC(C)=O (some centres undefined)
2 | 172 to 174 | C=CC(=O)Oc1ccc(N2C(=O)C(=C(C)C)/C(=C(/C)c3c(C)n(C)c4ccccc34)C2=O)cc1
3 | 140 to 142 | CSc1ncc(C(C)O)c(N)n1 (centres undefined)
4 | 144 to 146 | CN1CCCC2(CCn3c(c(C4=C(c5cn(C)c6ccccc56)C(=O)NC4=O)c4ccccc43)C2)C1 (centres undefined)
5 | 94 to 95 | CC(C)c1c(CO)c(-c2ccc(F)cc2)n2ccccc12
6 | 183 to 186 | O=C(NCCN1CCCC1)c1ccc(-c2ccc3nnn(Cc4ccc5ncccc5c4)c3n2)cc1F
7 | 216 to 218 | COc1ccc(C(=O)Sc2ccc(C(=O)O)cc2)cc1C1(C)CCCCC1
8 | 97 to 102 | CC(CF)(CF)C(O)C(Oc1ccc(Cl)cc1)n1cncn1 (centres undefined)
9 | 174 to 175 | CCOc1c(C)c(NC(=O)CC(C)(C)C)c(C)c2c1OCC2c1ccc(C(C)C)cc1 (centres undefined)
10 | 132 to 133 | CCOC(=O)N1CCC(NC(=O)c2ccccc2)C12CCCCC2 (centres undefined)
11 | 225 to 230 | Cc1ccc(C2(CC(=O)O)CNC(=O)C2)c(C)c1 (centres undefined)
12 | 240 | Nc1ccc(NC(=O)NC(=O)c2c(F)cccc2F)cc1
13 | 163 | CC(C)(C)c1ccc(OCC(=O)NCc2ccc(NS(C)(=O)=O)cc2)cc1
14 | 217 to 218 | Cc1cc2c(cc1Cl)CCN2C(=O)Nc1cccnc1
15 | 106 | CCOC(=O)C(C(=O)N(C)C)=C(OC(=O)c1ccccc1)c1ccc(Cl)cc1Cl
16 | 166 to 168 | O=C(O)COc1ccc(C(=O)c2cccc(F)c2)c(Cl)c1Cl
17 | 66 to 67 | O=c1c2c(oc3ccccc13)O2
18 | 109 to 112 | Cn1cc(-c2cccc(C(F)(F)F)c2)c(=O)c(-c2ccc(Cl)c(Cl)c2)c1

Row | melting point [°C] | SMILES
19 | 83 | O=C(c1ccc(F)cc1)C1CCN(CCCn2c(=O)sc3ccccc32)CC1
20 | 192 to 196 | Cn1c(C(F)(F)F)cc(=O)n(-c2ccc3snc(C(C)(C)C(N)=O)c3c2)c1=O
21 | 59 to 60 | COC1=C(OC)C(=O)C(CCCCCCCCCC(=O)O)=C(C)C1=O
22 | 88 | O=[N+]([O-])c1ccc(CSCc2c[nH]cn2)cc1
23 | 173 to 175 | O=c1[nH]ncc(N2CCN(Cc3ccccc3)CC2)c1Cl
24 | 172 to 173 | O=C(O)CCc1oc(Sc2ccccn2)nc1-c1ccc(Cl)cc1
25 | 242 to 244 | CCNc1cc2ncnc(N3CCN(C(=O)Nc4ccc(Oc5ccccc5)cc4)CC3)c2cc1[N+](=O)[O-]
26 | 147 to 148 | CCc1cc(OCc2ccc(-c3ccccc3-c3nnn(C(c4ccccc4)(c4ccccc4)c4ccccc4)n3)cc2)c2c(n1)CCCCC2
27 | 98 to 100 | CCOC(=O)c1cc(F)c(N2CCC(NC(=O)OC(C)(C)C)C2)cc1F (centres undefined)
28 | 105 | CC1(O)c2ccccc2CCC1OS(=O)(=O)CC12CCC(CC1=O)C2(C)C (centres undefined)
29 | 55 to 57 | O=C(N[C@@H]1CCC[C@H]1O)C(O)=CC(=O)c1cc(Cc2ccc(F)cc2F)cn(Cc2ccccc2F)c1=O
30 | 83 to 84 | ONc1ccc(Cl)cc1
31 | 148 | COc1ccc(C2(C#Cc3cc(C#N)cc(C#N)c3)CCC(=O)CC2)cc1OC1CCCC1
32 | 101 to 102 | CCCCCCCCCCCCCCCCCCNC(=O)OCC(CNS(=O)(=O)CCCI)NC(C)=O (centres undefined)
33 | 122 to 125 | CONC(=O)NC1CCCc2ccccc21 (centres undefined)
34 | 257 to 259 | CN(C)c1ccc(CCc2ccc3c(=O)[nH]ncc3c2)cc1
35 | 37 to 38 | C=CCSC[C@H](NC(=O)OC(C)(C)C)C(=O)OC

Row | SMILES | melting point [°C]
36 | O=[N+]([O-])c1ccc(C23CCN(CC2)CC3)cc1 | 130 to 135
37 | Clc1ccc2nc(NC3=NCCN3)[nH]c2c1 | 241 to 242
38 | CN1C(=O)C(NC(=O)NCc2ccccc2)N=C(c2ccccc2)c2ccccc21 (centres undefined) | 240 to 242
39 | Nc1c(Cl)cccc1C(=O)c1ccccc1F | 86 to 87.5
